Laboratory results as given in PMC6642116, “Structural and functional analyses of hepatitis B virus X protein BH3-like domain and Bcl-xL interaction” (Nature Communications, 2019).

Tests used:
[1] = test system: HBV DNA in HepG2.2.15 cells; test: HBV DNA replication in HepG2.2.15 cells treated with ABT-263 or ABT-737; format: cell-based; conditions: for HBV DNA: 2 days; for inhibition of HBV DNA replication (in words): 125-1000 nM, 48 h
Protocol: (§1) Fig. 6 The HBx-aa118–127 peptide, but not ABT-263, inhibits HBV replication and transcription in HepG2.2.15 cells. a HepG2.2.15 cells were treated with 125, 250, 500, and 1000 nM of ABT-263 for 2 days. Cytoplasmic HBV viral particles were isolated and the viral DNA replication intermediates were quantified (Methods). The results represent the fold change of the replicative intermediates in HepG2.2.15 cells from the indicated treatments, compared with those without treatment. b HepG2.2.15 cells were treated with the indicated concentrations of ABT-263 for 2 days. The lysate was analyzed by immunoblotting using antibodies to caspase-3 (CASP3) and GAPDH (glyceraldehyde 3-phosphate dehydrogenase). c, d The HBx-aa113–135, HBx-aa118–127, or the control peptides were delivered into HepG2.2.15 cells using PEP-1 nanoparticles (Methods). The levels of HBV DNA (c) and the levels of HBV S-antigen (HBsAg) expression (d) in culture medium collected from HepG2.2.15 cells were measured (Methods). The results are shown as fold change compared to that of the control peptide. e–g HepG2-NTCP cells were transfected with HBx118–127 peptide with concentration of […], and 50 μg/ml or unrelated control peptide during HBV infection (multiplicity of infection (MOI) = 200), respectively. e HBV e-antigen (HBeAg), f HBV DNA, and g cell viability were measured at day 8 after HBV infection. Data shown represent mean ± SD. Significance is indicated on the top. Not significant (ns): *P < 0.05, **P < 0.01; two-tailed unpaired t tests (n = 3 biologically independent samples). Source data are provided as a Source Data file […]
ABT-263 and ABT-737, the picomolar BH3 mimetics, were purchased from Apexbt Technology LLC (Houston, TX, USA). HepG2.2.15 cells were treated with 125, 250, 500, and 1000 nM of ABT-263 or ABT-737 for 48 h. Cytoplasmic HBV viral particles and HBV DNA were then isolated for quantification.
ABT-263 or ABT-737 for two days. Cytoplasmic HBV viral particles were isolated and the viral DNA replication intermediates were quantified by real-time PCR using a specific primer set targeting HBS ORF (Materials and Methods). The results represent the fold change of the replicative intermediates in HepG2.2.15 cells from the indicated treatments, compared with those without treatment. b HepG2.2.15 cells were treated with the indicated concentrations of ABT-263 or ABT-737 for two days. The lysate was analyzed by immunoblotting using antibodies to Caspase-3 (CASP3) and GAPDH.
Data shown represent mean ± SD. Significance is indicated on the top. Not significant (ns): P > 0.05; two-tailed unpaired t-tests. Source data are provided as a Source Data […]
(1 picture or pasted object on this page, not shown here)

caspase-3 (CASP3) = test: Caspase-3 proteolytic activation in HepG2.2.15 cells (immunoblot); format: cell-based; conditions: HepG2.2.15, 2 days
Protocol: as §1, with “infection.” for “infection. Data shown represent mean ± SD. Significance is indicated on the top. Not significant (ns): *P < 0.05, **P < 0.01; two-tailed unpaired t tests (n = 3 biologically independent samples). Source data are provided as a Source Data file”

HBV in HepG2.2.15 cells = test: Combination of HBx118–127 and ABT-263 on HBV in HepG2.2.15 cells; format: cell-based; conditions: ABT-263 1 μM, HBx118–127 via PEP-1; for HBV DNA: HepG2.2.15 culture medium, 48 h in total; for HBV DNA / HBeAg in culture medium / HBsAg in culture medium / Intracellular HBcAg: sequential: ABT-263 12 h then HBx118–127 36 h; for HBeAg in culture medium / HBsAg in culture medium / Intracellular HBcAg: HepG2.2.15, 48 h in total
Protocol: In all panels, from left to right (bars 1–5), cells were treated with placebo buffer, HBx118–127 only, ABT-263 only, HBx118–127 and ABT-263 together, and ABT-263, followed by HBx118–127, respectively. The cells in bars 1–4 were treated for 48 h, whereas the cells in bar 5 were first treated by ABT-263 for 12 h, followed by treatment with HBx118–127 for another 36 h. The final concentration of ABT-263 was 1 μM in the culture medium, while HBx-aa118–127 was delivered by PEP-1 nanoparticles. After 48-h treatment, the protein expression levels of HBV S-antigen (HBsAg) (a) and HBV e-antigen (HBeAg) (b) in the culture medium, the intracellular protein expression level of HBV core antigen (HBcAg) (c), and the HBV viral DNA tilter (d) in the culture medium of HepG2.2.15 cells were measured (Methods). The results are shown as fold changes compared to the values obtained from the cells treated with the placebo buffer. Data shown represent mean ± SD. Significance is indicated on the top. Not significant (ns): *P < 0.05, **P < 0.01, ***P < 0.001; two-tailed unpaired t tests (n = 3 biologically independent samples). Source data are provided as a Source Data file
The levels of HBsAg, HBeAg, and HBcAg expression were measured by chemiluminescence, using Commercial Assay Kit (Wantai, Beijing, China). Northern blot analysis of HBV RNA, Southern blot analysis of HBV DNA, and real-time PCR quantification of HBV DNA are described in the Supplementary Methods.

Bcl-xL = biological target: T1, Bcl-xL (Homo sapiens, UniProt Q07817, DEL27-82); conditions: cited from earlier work
T1 construct: 6xHis-SUMO (N, cleaved yes); made in house; host or cells: Escherichia coli BL21(DE3)
T1 sequence (Q07817 with tags, fused parts or gaps DEL27-82 limits assumed): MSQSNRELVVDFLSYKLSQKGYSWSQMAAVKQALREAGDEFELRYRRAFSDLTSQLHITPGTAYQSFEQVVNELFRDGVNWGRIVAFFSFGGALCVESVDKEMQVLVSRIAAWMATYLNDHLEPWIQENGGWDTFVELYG

SMILES	HBV DNA ([1]; 125 nM, replicate 1)	HBV DNA ([1]; 125 nM, replicate 2)	HBV DNA ([1]; 125 nM, replicate 3)	HBV DNA ([1]; 250 nM, replicate 1)	HBV DNA ([1]; 250 nM, replicate 2)	HBV DNA ([1]; 250 nM, replicate 3)	HBV DNA ([1]; 500 nM, replicate 1)	HBV DNA ([1]; 500 nM, replicate 2)	HBV DNA ([1]; 500 nM, replicate 3)	HBV DNA ([1]; 1000 nM, replicate 1)	HBV DNA ([1]; 1000 nM, replicate 2)	HBV DNA ([1]; 1000 nM, replicate 3)	inhibition of HBV DNA replication (in words) [1]	proteolytic activation of caspase-3 (in words) (caspase-3 (CASP3))	reported Bcl-xL inhibitor potency (in words) (Bcl-xL)	also measured
CC1(C)CCC(c2ccc(Cl)cc2)=C(CN2CCN(c3ccc(C(=O)NS(=O)(=O)c4ccc(N[C@H](CCN5CCOCC5)CSc5ccccc5)c(S(=O)(=O)C(F)(F)F)c4)cc3)CC2)C1 [ABT-263]	0.966 fold change to non-treatment	1.035 fold change to non-treatment	1.028 fold change to non-treatment	1.021 fold change to non-treatment	0.966 fold change to non-treatment	0.946 fold change to non-treatment	1.021 fold change to non-treatment	0.973 fold change to non-treatment	0.966 fold change to non-treatment	1.000 fold change to non-treatment	0.940 fold change to non-treatment	0.940 fold change to non-treatment	did not inhibit HBV DNA replication	induced significant proteolytic activation of caspase-3	picomolar	HBV DNA (HBV in HepG2.2.15 cells; replicate 1): 1.089 fold-change to control; HBV DNA (HBV in HepG2.2.15 cells; replicate 2): 1.052 fold-change to control; HBV DNA (HBV in HepG2.2.15 cells; replicate 3): 0.924 fold-change to control; HBeAg in culture medium (HBV in HepG2.2.15 cells; replicate 1): 1.047 fold-change to control; HBsAg in culture medium (HBV in HepG2.2.15 cells; replicate 1): 0.956 fold-change to control; Intracellular HBcAg (HBV in HepG2.2.15 cells; replicate 1): 0.979 fold-change to control; HBeAg in culture medium (HBV in HepG2.2.15 cells; replicate 2): 0.911 fold-change to control; HBsAg in culture medium (HBV in HepG2.2.15 cells; replicate 2): 0.938 fold-change to control; Intracellular HBcAg (HBV in HepG2.2.15 cells; replicate 2): 0.909 fold-change to control; HBeAg in culture medium (HBV in HepG2.2.15 cells; replicate 3): 0.937 fold-change to control; HBsAg in culture medium (HBV in HepG2.2.15 cells; replicate 3): 0.832 fold-change to control; Intracellular HBcAg (HBV in HepG2.2.15 cells; replicate 3): 0.921 fold-change to control; effect on HBV replication (in words) (HBV in HepG2.2.15 cells; HepG2.2.15): did not affect HBV replication
CN(C)CC[C@H](CSc1ccccc1)Nc1ccc(S(=O)(=O)NC(=O)c2ccc(N3CCN(Cc4ccccc4-c4ccc(Cl)cc4)CC3)cc2)cc1[N+](=O)[O-] [ABT-737]	1.000 fold change to non-treatment	0.986 fold change to non-treatment	0.979 fold change to non-treatment	1.110 fold change to non-treatment	1.035 fold change to non-treatment	1.007 fold change to non-treatment	0.953 fold change to non-treatment	1.000 fold change to non-treatment	1.021 fold change to non-treatment	0.993 fold change to non-treatment	1.021 fold change to non-treatment	1.021 fold change to non-treatment	did not inhibit HBV DNA replication	induced significant proteolytic activation of caspase-3	picomolar	
